PMC6481345, “A novel anti-melanoma SRC-family kinase inhibitor” (Oncotarget, 2019)

How the values were obtained:
tyrosinase = assay: Western blot, tyrosinase levels; assay type: cell-based, human; settings: YUSIK, YUKIM and YUPEET; 0.5 µM for 20 hrs
Method: (§1) We used standard techniques to identify changes in intracellular signaling in response to various treatments. Briefly, melanoma cells were incubated with test compounds, using DMSO as a control, collected by scraping on ice, and lysed in RIPA buffer supplemented with protease and phosphatase inhibitors (MA #78428, and #78425, respectively, Thermo Fisher Scientific, Waltham, MA). Protein concentrations were measured with the BioRad kit (Bio-Rad Laboratories, Hercules, CA), SDS sample buffer was added, extracts were heated at 95°C, sonicated and centrifuged. Cell extracts (20 µg/lane) were fractionated in 3%–8% or 4–12 % tris-acetate gel (NP0006, NuPAGE Life Technologies). […]

pY467/199 PIK3R1/3 = assay: Western blot, phospho-Y467/199 PIK3R1/3; assay type: cell-based, human; settings: melanoma cell lines; 0.5 µM, 5 hrs
Method: as §1

[1] = tested on: NCI-60 melanoma cell lines; assay: NCI-60 human tumor cell line screen, melanomas (summary); assay type: cell-based; settings: melanoma cell lines of NCI-60, read-out: IC50, range over cell lines
Method: We first tested the impact of SAB298 on NCI-60 human tumor cell lines that included eight melanomas (performed by the NCI Development Therapeutics Program).
SFK-inhibitors were tested on a panel of NCI-60 cell lines (Supplementary Table 1) and 30 melanoma cell lines and NBMEL, i.e., normal human melanocytes isolated from a newborn foreskin (Table 1 and Supplementary Table 2). The Yale melanoma cohort designated YU originated from tumors excised to improve patient quality of life and used with participants’ informed consent according to Health Insurance Portability and Accountability Act (HIPAA) regulations with Human Investigative Committee protocol.
Supplementary Table 1: Cellular activity of SAB298 in a Panel of NCI-60 cancer cell lines*
measured protein; and TI is LC50/GI50.
Supplementary Table 2: Description of Melanoma Cell lines. See Supplementary_Table_2

phospho-ERBB2 Y1196 = assay: Western blot, phospho-ERBB2; assay type: cell-based, human; settings: YUSOC, YUROB, YUSIV, YUTOGS
Method: as §1

MITF = assay: Western blot, MITF levels; assay type: cell-based, human; settings: melanoma cell lines, SAB298 0.5 µM, UM-164 1 µM, 6 hrs, SCH772984 0.5 µM
Method: We used standard techniques to identify changes in intracellular signaling in response to various treatments. Briefly, melanoma cells were incubated with test compounds, using DMSO as a control, collected by scraping on ice, and lysed in RIPA buffer supplemented with protease and phosphatase inhibitors (MA #78428, and #78425, respectively, Thermo Fisher Scientific, Waltham, MA). Protein concentrations were measured with the BioRad kit (Bio-Rad Laboratories, Hercules, CA), SDS sample buffer was added, extracts were heated at 95°C, sonicated and centrifuged. Cell extracts (20 µg/lane) were fractionated in 3%–8% or 4–12 % tris-acetate gel (NP0006, NuPAGE Life Technologies). We probed with the following primary antibodies: phospho-SRC Tyr416 (CST #2101S), pSRC Tyr527 (#2105), SRC (#2108), pPI3K p85 Y458/p55 Y199 (#4228), LYN (C13F9, #2796), FYN (#4023), phospho-MEK1/2 pSer217/221 (#9121), MEK1/2, phospho-ERK2 pThr202/Tyr204 (#9101), ERK1/2 (#9107), phospho-p38 kinase T180/Y182 (#9216), p38 kinase (#9212), PP2A (#2259), pSHP2 Y542 (#3751), SHP2 (D50F2, #3397), ERBB2 (D8F12 XP(R), #4290), phospho-ERBB2 Y1196 (D66B7 #6942), MYC (D84C12, #5605); GAPDH (14C10, #2118), all from Cell Signaling Technology, Beverly, MA; phospho-PP2A Y307 (AF3989), and MITF (clone D5, #AF5769) from R&D Systems, Inc., Minneapolis, MN; p27KIP1 (#10241) and YES (#610375) from BD Biosciences, San Jose, CA; Cyclin D1 (#04-221) and β-actin (mouse mAb A5316) from MilliporeSigma, St. Louis, MO; PI3K Antibody (p85 alpha, NSJ R30480) from Bioreagents, 9921 Carmel Mountain Rd #352, San Diego, CA. All antibodies were used at the concentrations recommended by the manufacturers.

LYN = LYN (Homo sapiens, UniProt P07948); assay: KiNativ in situ kinase profiling in melanoma cell lysates; assay type: binding; set-up: the endogenous kinome response to SAB298 (0.05 µM, 0.5 µM and 5 µM) in lysates from two melanoma cell lines; host or cells: YUSIV and YUSIK melanoma cell lysates; settings: 3-point dose response
Method: (§2) The effect of SAB298 on a panel of 36 recombinant kinases, was screed with the radioisotope filter binding assay employing 10 concentrations of the compound with 10 µM ATP (Reaction Biology Corporation, Malvern, PA). In addition, we tested the endogenous kinome response to SAB298 (0.05 µM, 0.5 µM and 5 µM) in lysates from two melanoma cell lines (YUSIV and YUSIK) employing the KiNativ® platform (ActivX Biosciences Inc., La Jolla, CA). KiNativ® is a robust, high performance mass spectrometry (LC-MS^2) assay that uses biotinylated probes to measure relevant changes in the affinity to the ATP-binding sites of 205 native kinases as a function of cellular context. We also validated SAB298 effect on the activity of SRC-family kinases by probing for phosphorylated Y416, the marker of activated SFKs, with anti-IEDNEpYTAR antibodies (also known as Y419, #2101, Cell Signaling Technology, Beverly, MA). In some cases the cells were incubated overnight with 20 µM proteasome inhibitor MG-132 (CAS 133407-82-6, Millipore Sigma, Burlington, MA) to rescue degradation.

SRC = SRC (Homo sapiens, UniProt P12931); assay: as above; assay type: binding; set-up: the endogenous kinome response to SAB298 (0.05 µM, 0.5 µM and 5 µM) in lysates from two melanoma cell lines; host or cells: YUSIV and YUSIK melanoma cell lysates
Method: as §2

Chain of SRC (P12931 whole entry): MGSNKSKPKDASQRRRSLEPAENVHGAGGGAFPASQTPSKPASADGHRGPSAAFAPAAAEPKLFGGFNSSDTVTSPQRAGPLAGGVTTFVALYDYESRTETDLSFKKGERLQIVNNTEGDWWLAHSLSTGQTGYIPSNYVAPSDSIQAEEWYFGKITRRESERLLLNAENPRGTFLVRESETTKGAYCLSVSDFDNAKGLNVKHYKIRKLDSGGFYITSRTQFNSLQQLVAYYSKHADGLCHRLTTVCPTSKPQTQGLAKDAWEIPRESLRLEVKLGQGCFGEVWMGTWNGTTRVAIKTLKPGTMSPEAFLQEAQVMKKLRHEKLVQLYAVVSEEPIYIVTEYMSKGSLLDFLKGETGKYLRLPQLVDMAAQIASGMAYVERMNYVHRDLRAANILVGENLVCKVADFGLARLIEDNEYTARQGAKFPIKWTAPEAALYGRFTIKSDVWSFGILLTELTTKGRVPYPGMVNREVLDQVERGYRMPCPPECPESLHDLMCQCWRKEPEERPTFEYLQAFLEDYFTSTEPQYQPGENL
Chain of LYN (P07948 whole entry): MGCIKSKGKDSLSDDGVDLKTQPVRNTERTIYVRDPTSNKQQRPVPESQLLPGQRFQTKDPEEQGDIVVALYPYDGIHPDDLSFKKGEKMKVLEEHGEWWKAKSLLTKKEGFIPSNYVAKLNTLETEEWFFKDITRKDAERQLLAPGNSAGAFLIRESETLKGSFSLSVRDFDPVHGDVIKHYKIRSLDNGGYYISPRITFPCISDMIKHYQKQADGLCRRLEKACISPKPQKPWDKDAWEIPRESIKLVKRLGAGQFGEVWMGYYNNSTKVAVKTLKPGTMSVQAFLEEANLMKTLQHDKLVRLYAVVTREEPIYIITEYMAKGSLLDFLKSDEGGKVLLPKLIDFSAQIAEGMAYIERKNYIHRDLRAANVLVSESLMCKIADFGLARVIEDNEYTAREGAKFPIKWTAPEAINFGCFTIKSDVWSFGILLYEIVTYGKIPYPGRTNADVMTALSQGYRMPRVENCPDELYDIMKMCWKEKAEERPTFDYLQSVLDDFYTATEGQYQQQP

Nc1ncnc2c1c(-c1ccc(Oc3ccccc3)cc1)nn2C[C@@H]1SSC[C@@H]1O [SAB298, (3S, 4S)-3-((4-amino-3-(4-phenoxyphenyl)-1H-pyrazolo[3,4-d]pyrimidin-1-yl)methyl)-1,2-dithiolan-4-ol]
tyrosinase levels (tyrosinase): suppressed the levels of tyrosinase
phospho-Y467/199 PIK3R1/3 level (pY467/199 PIK3R1/3): suppressed PI3K
IC50 [1]: 21 to 550 nM
phospho-ERBB2 Y1196 level (phospho-ERBB2 Y1196): suppressed phospho-ERBB2 Y1196
MITF levels (MITF): suppressed MITF levels in four out of seven melanoma cell lines
IC50 (LYN; LYN in YUSIK lysate): 190 nM
IC50 (LYN; LYN in YUSIV lysate): 60 nM
higher binding affinity in KiNativ assay compared to radioisotope filtration binding assay (SRC; SRC): ~10 fold
IC50 (SRC; SRC in YUSIV lysate, 3-point dose response): 31 nM
